Measured values taken from publication doi:10.1101/2025.07.28.666932v2, “Mechanism-Guided Engineering of Fluorinase Unlocks Efficient Nucleophilic Biofluorination” (biorxiv, 2026).

Molecular target: T1, fluorinase FlA1 (Streptomyces sp., UniProt W0W999)
T1 construct: recombinant, overexpressed in Escherichia coli, purified
Assay: global numerical fit of steady-state kinetics and mass photometry
Format: biochemical
Settings: 75 mM KF, 50 mM HEPES, pH 7.8, 37 °C; competitive with fluoride; dissociation of the unproductive E·SAM complex

T1 sequence (W0W999 whole entry): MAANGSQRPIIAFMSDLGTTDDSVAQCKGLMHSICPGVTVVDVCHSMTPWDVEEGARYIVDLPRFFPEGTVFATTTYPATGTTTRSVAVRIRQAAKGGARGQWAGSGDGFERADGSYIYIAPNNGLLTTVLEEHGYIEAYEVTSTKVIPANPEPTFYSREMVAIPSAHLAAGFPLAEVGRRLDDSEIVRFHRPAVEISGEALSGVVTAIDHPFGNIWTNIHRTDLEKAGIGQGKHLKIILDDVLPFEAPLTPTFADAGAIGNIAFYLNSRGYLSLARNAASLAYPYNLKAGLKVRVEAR

With C[S+](CC[C@H](N)C(=O)O)C[C@H]1O[C@@H](n2cnc3c(N)ncnc32)[C@H](O)[C@@H]1O (stereo partly shown) [SAM] the “Ki,SAM” value was 1.16 ± 0.08 µM.
